Experimental data: US20050130979A1, “Treatment of demyelinating disorders” (Eisai Co., Ltd., priority 1998, published 2005)
“Also recorded” adds a separate entry of the source.

Test system: Lewis rat acute EAE
Test: Acute-active EAE in Lewis rats (MBP immunisation), clinical disease scoring and weight
Format: in vivo
Settings: for Incidence (%) / Incidence (animals with neurological deficit / group): Lewis rat acute EAE; for Duration / Onset / Peak Disease Score / Cumulative Disease Score / Weight Loss: mean; for Peak Disease Score: scale 0-5; for Cumulative Disease Score: summation of daily scores; for neurological deficits during acute EAE (in words) / cumulative disease score relative to vehicle treatment (in words) / peak disease score relative to vehicle treatment (in words) / severity of paralysis during EAE (in words) / disease duration relative to vehicle treatment (in words) / disease onset relative to vehicle treatment (in words): rats; for neurological deficits during acute EAE (in words): following treatment; for severity of paralysis during EAE (in words): vs vehicle
Procedure: Female Lewis rats (205+10 g) obtained from Charles River, Kent, UK, were housed in pairs under environmentally controlled conditions (6:00 a.m.-6:00 p.m. light/dark cycle; 22-24° C.; 45-55% humidity) and allowed free access to food and water. […] Female Biozzi mice (20±5 g) obtained from Harlan, UK, were housed under the conditions described above. Experimental groups consisted of 7-10 animals.
Rats were immunised in each hind foot with 50 μl of inoculum containing 50 μg guinea pig myelin basic protein (MBP, prepared by the method of Dunkley and Carnegie (1974); final concentration […]), emulsified in Freund's complete adjuvant (CFA; Sigma, UK) containing Mycobacterium tuberculosis H37Ra (final concentration 5.5 mg/ml; Difco Laboratories, UK).
Animals were weighed and monitored daily and clinical disease scored as (0) no clinical signs; (1) flaccid tail and weight loss; (2) hind limb hypotonia with further weight loss; (3) complete hind limb paralysis; (4) paraplegia and (5) death. […] During the period of compound administration (10-16 days post immunisation; dpi) animals were scored 15 h after injection of vehicle or NBQX to avoid any acute effect of treatment on disease score.
NBQX was initially dissolved in NaOH and diluted with water. pH was adjusted with HCl. Rats were injected i.p. twice daily (9 a.m. and 5 p.m.) on days 10 to 16 post immunisation with either vehicle or NBQX in the dose of 30 mg/kg. Mice were injected i.p. either twice daily (9 a.m. and 5 p.m.) on days 10 to 16 post immunisation or once daily (9 a.m.) on days 26 to 42 post immunisation with either vehicle or NBQX in the dose of 30 mg/kg.
GYKI53773 was suspended in 5% cremophore in saline. Rats were injected i.p. twice daily (9 a.m. and 5 p.m.) on days 10 to 16 post immunisation with either vehicle or GYKM53773 in the dose of 30 mg/kg.
GYKM52466 was suspended in 5% cremophore in water. Rats were injected i.p. twice daily (9 a.m. and 5 p.m.) on days 10 to 16 post immunisation with either vehicle or GYKI52466 in the dose of 30 mg/kg.
BIIR561 was suspended in 5% cremophore in water. Rats were injected i.p. twice daily (9 a.m. and 5 p.m.) on days 10 to 16 post immunisation with either vehicle or BIIR561 in the dose of 30 mg/kg.
CP465022 was suspended in 5% cremophore in water. Rats were injected i.p. twice daily (9 a.m. and 5 p.m.) on days 10 to 16 post immunisation with either vehicle or CP465022 in the dose of 10 mg/kg.
MPQX was initially dissolved in NaOH and diluted with water. pH was adjusted with HCl. Rats were injected i.p. twice daily (9 a.m. and 5 p.m.) on days 10 to 16 post immunisation with either vehicle or MPQX in the dose of 10 mg/kg.

[1] = GYKI52466 30 mg/kg i.p. twice daily 10-16 dpi
[2] = 30 mg/kg i.p. twice daily 10-16 dpi
[3] = 30 mg/kg i.p. twice daily 10-16 dpi, 30 mg/kg
[4] = GYKI53773 30 mg/kg i.p. twice daily 10-16 dpi
[5] = MPQX 10 mg/kg i.p. twice daily 10-16 dpi
[6] = 10 mg/kg i.p. twice daily 10-16 dpi
[7] = 10 mg/kg i.p. twice daily 10-16 dpi, 10 mg/kg
[8] = CP465022 10 mg/kg i.p. twice daily 10-16 dpi
[9] = BIIR561 30 mg/kg i.p. twice daily 10-16 dpi

Compound: CC1=NN=C(c2ccc(N)cc2)c2cc3c(cc2C1)OCO3 [GYKI52466, 1-(-aminophenyl)-4-methyl-7,8-methylene-dioxy-5H-2,3-benzodiazepine]
- Incidence (%) [1]: (60) %
- Incidence (animals with neurological deficit / group) [1]: 15/16
- Duration [1]: 4.0 days
- Onset (n = 15, GYKI52466 30 mg/kg i.p. twice daily 10-16 dpi): 11.6 d.p.i.
- Peak Disease Score [1]: 2.4
- Cumulative Disease Score [1]: 8.0
- Weight Loss (weight on cessation of experiment as percent of maximum weight before disease onset, GYKI52466 30 mg/kg i.p. twice daily): 20%
- neurological deficits during acute EAE (in words): reduced neurological deficits
- cumulative disease score relative to vehicle treatment (in words) [2]: significantly reduced
- peak disease score relative to vehicle treatment (in words) [3]: significantly reduced
- severity of paralysis during EAE (in words) [2]: reduces the severity of paralysis

Compound: (−)1-(4-aminophenyl)-4-methyl-7,8-methylenedioxy-4,5-dihydro-^3-methylcarbamoyl-2,3-benzodiazepine [GYKI53773]
- Incidence (%) [4]: (60) %
- Incidence (animals with neurological deficit / group) [4]: 6/10
- Duration [4]: 1.9 days
- Onset (n = 6 for GYKI53773, 30 mg/kg i.p. twice daily 10-16 dpi): 12.7 d.p.i.
- Peak Disease Score [4]: 0.9
- Cumulative Disease Score [4]: 2.1
- Weight Loss (weight on cessation of experiment (20 dpi) as percent of maximum weight before disease onset, GYKI53773 30 mg/kg i.p. twice daily): 16%
- neurological deficits during acute EAE (in words): reduced neurological deficits
- cumulative disease score relative to vehicle treatment (in words) [2]: significantly reduced
- disease duration relative to vehicle treatment (in words) [2]: significantly reduced
- peak disease score relative to vehicle treatment (in words) [3]: significantly reduced
- peak disease score relative to vehicle treatment (in words) (30 mg/kg i.p. twice daily 10-16 dpi, listed as GYKM53773, 30 mg/kg): significantly reduces
- severity of paralysis during EAE (in words) [2]: reduces the severity of paralysis

Compound: O=c1[nH]c2cc(C(F)(F)F)c(N3CCOCC3)cc2n(CP(=O)(O)O)c1=O [MPQX]
- Incidence (%) [5]: (58) %
- Incidence (animals with neurological deficit / group) [5]: 7/12
- Duration [5]: 1.7 days
- Onset (n = 7 for MPQX, 10 mg/kg i.p. twice daily 10-16 dpi): 12.3 d.p.i.
- Peak Disease Score [5]: 1.2
- Cumulative Disease Score [5]: 3.2
- Weight Loss (weight on cessation of experiment (18 dpi) as percent of maximum weight before disease onset, MPQX 10 mg/kg i.p. twice daily): 22%
- neurological deficits during acute EAE (in words): reduced neurological deficits
- cumulative disease score relative to vehicle treatment (in words) [6]: reduced
- disease duration relative to vehicle treatment (in words) [6]: reduced
- disease onset relative to vehicle treatment (in words) [6]: significantly delayed
- peak disease score relative to vehicle treatment (in words) [7]: significantly reduces; also recorded: reduced
- severity of paralysis during EAE (in words) [6]: reduces the severity of paralysis

Compound: CCN(CC)Cc1cccc(C=Cc2nc3ccc(F)cc3c(=O)n2-c2ccccc2Cl)n1 [CP465022, 3-(2-chlorophenyl)-2-[2-[6-[(diethylamino)methyl]-2-pyridinyl]ethenyl]-6-fluoro-4(3H)-quinazolinone]
- Incidence (%) [8]: (89) %
- Incidence (animals with neurological deficit / group) [8]: 8/9
- Duration [8]: 3.4 days
- Onset (n = 8 for CP465022, 10 mg/kg i.p. twice daily 10-16 dpi): 13.4 d.p.i.
- Peak Disease Score [8]: 2.0
- Cumulative Disease Score [8]: 7.2
- Weight Loss (weight on cessation of experiment as percent of maximum weight before disease onset, CP465022 10 mg/kg i.p. twice daily): 20%
- neurological deficits during acute EAE (in words): reduced neurological deficits
- cumulative disease score relative to vehicle treatment (in words) [6]: reduced
- disease duration relative to vehicle treatment (in words) [6]: reduced
- disease onset relative to vehicle treatment (in words) [6]: significantly delayed
- peak disease score relative to vehicle treatment (in words) [7]: significantly reduces; also recorded: reduced
- severity of paralysis during EAE (in words) [6]: reduces the severity of paralysis

Compound: CN(C)Oc1ccccc1-c1nc(-c2ccccc2)no1 [BIIR561, 5-(2-[N,N-dimethylamino]oxy-phenyl)-3-phenyl-1,2,4-oxadiazol]
- Incidence (%) [9]: (100) %
- Incidence (animals with neurological deficit / group) [9]: 16/16
- Duration [9]: 3.9 days
- Onset (n = 16 for BIIR561, 30 mg/kg i.p. twice daily 10-16 dpi): 12.4 d.p.i.
- Peak Disease Score [9]: 2.6
- Cumulative Disease Score [9]: 7.8
- Weight Loss (weight on cessation of experiment as percent of maximum weight before disease onset, BIIR561 30 mg/kg i.p. twice daily): 17%
- neurological deficits during acute EAE (in words): reduced neurological deficits
- cumulative disease score relative to vehicle treatment (in words) [2]: significantly reduced
- peak disease score relative to vehicle treatment (in words) [3]: significantly reduced
- severity of paralysis during EAE (in words) [2]: redcues the severity of paralysis
